Results on four compounds are retold here after publication PMC7252619 (PLoS ONE, 2020).

Like-named read-outs stand apart in the source and are kept apart here.

Experiment in all cases: Kinase activity test (ReactionBiology), % enzyme activity relative to DMSO
Assay type in all cases: biochemical

In one assay the target is T1, DAPK1 (Homo sapiens, UniProt P53355).
T1 construct: purchased ReactionBiology
Particulars: DAPK1.

Another assay addresses T2, CK1d (Homo sapiens, UniProt P48730).
T2 construct: purchased ReactionBiology
Particulars: CK1d.

Another assay concerns the target T3, EPHB4 (Homo sapiens, UniProt P54760).
T3 construct: purchased ReactionBiology
T3 sequence (P54760 16-987): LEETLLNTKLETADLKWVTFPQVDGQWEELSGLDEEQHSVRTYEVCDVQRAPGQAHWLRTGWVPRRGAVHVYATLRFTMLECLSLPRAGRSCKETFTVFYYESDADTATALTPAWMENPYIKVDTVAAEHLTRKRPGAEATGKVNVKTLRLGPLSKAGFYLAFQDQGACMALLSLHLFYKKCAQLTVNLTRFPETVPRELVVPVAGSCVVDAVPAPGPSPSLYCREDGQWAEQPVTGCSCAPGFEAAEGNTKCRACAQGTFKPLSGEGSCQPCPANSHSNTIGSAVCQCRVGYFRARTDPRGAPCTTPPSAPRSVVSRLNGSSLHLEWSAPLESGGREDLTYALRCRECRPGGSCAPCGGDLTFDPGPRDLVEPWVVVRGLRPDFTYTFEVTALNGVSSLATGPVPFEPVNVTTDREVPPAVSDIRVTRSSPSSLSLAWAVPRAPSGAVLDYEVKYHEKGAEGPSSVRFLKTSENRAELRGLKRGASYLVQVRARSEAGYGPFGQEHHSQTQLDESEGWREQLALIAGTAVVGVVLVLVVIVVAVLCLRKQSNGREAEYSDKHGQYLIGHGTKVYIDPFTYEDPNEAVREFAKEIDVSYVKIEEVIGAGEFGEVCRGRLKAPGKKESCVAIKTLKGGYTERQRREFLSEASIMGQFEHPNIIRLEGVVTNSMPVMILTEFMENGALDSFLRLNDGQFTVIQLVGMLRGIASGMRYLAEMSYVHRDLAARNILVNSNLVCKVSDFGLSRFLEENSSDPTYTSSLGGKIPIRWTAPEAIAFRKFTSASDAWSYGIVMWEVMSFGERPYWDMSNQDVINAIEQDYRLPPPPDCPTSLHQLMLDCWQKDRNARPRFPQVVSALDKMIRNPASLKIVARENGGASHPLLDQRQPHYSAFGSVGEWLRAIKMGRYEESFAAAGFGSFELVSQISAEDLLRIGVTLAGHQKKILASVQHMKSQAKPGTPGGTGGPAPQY
Particulars: EPHB4.

The target in another assay is VEGFR2 (Homo sapiens, UniProt P35968). Further details: purchased ReactionBiology. Particulars: VEGFR2.
VEGFR2, sequence (P35968 20-1356): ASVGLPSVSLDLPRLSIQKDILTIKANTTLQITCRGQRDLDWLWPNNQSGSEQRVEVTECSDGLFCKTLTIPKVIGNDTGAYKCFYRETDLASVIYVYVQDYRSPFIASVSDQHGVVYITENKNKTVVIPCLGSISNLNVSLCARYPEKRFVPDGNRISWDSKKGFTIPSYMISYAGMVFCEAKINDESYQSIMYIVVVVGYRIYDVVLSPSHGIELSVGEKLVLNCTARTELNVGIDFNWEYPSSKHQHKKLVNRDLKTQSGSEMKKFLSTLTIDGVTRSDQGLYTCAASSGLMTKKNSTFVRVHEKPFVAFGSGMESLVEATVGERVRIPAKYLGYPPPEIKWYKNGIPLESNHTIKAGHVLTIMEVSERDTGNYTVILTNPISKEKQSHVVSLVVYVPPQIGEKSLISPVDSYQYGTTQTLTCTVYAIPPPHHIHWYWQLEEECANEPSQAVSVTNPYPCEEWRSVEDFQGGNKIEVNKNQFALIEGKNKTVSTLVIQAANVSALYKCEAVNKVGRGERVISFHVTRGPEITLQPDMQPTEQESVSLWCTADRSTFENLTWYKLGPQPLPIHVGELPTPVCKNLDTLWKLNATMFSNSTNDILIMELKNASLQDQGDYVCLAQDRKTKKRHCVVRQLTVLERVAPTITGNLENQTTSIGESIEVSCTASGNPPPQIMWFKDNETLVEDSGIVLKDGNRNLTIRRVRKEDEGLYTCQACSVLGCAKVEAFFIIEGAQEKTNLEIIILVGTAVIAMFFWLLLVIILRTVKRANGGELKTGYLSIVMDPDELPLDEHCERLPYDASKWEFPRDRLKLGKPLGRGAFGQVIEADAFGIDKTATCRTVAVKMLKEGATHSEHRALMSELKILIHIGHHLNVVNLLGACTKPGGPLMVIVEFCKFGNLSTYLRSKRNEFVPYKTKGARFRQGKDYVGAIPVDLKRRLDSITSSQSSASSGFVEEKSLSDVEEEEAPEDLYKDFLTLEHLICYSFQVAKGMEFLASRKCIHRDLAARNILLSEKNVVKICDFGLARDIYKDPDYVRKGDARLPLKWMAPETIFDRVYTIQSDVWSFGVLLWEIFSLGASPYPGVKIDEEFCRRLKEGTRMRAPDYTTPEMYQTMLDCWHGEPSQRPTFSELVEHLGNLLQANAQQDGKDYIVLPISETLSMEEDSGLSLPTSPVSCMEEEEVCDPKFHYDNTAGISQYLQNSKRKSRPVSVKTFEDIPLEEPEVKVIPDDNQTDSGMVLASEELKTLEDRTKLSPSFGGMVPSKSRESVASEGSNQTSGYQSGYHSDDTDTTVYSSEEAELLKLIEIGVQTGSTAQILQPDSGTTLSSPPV
In the next assay the target is T4, NEK2 (Homo sapiens, UniProt P51955).
T4 construct: purchased ReactionBiology
T4 sequence (P51955 1-445): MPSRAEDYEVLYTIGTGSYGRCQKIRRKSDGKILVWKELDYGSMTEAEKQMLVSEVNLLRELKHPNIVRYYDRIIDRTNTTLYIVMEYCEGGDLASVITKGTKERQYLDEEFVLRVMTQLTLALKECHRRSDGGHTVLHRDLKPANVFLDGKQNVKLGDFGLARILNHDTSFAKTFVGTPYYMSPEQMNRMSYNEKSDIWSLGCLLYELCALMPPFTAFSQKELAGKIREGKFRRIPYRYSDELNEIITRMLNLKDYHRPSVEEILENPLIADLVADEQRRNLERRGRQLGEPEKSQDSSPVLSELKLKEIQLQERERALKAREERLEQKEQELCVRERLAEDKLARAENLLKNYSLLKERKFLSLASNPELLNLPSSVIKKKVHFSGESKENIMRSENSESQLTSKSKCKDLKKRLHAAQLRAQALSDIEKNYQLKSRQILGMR
Particulars: NEK2.

Where [1] appears, read: 1 uM, Average, read-out: % Enzyme Activity (relative to DMSO controls), Average.
The mark [2] stands for this setting: 1 uM, replicate Data 1, read-out: % Enzyme Activity (relative to DMSO controls), Data 1.
Setting [3] is: 1 uM, replicate Data 2, read-out: % Enzyme Activity (relative to DMSO controls), Data 2.
Where [4] appears, read: 10 uM, Average, read-out: % Enzyme Activity (relative to DMSO controls), Average.
The mark [5] stands for this setting: 10 uM, replicate Data 1, read-out: % Enzyme Activity (relative to DMSO controls), Data 1.
The mark [6] stands for this setting: 10 uM, replicate Data 2, read-out: % Enzyme Activity (relative to DMSO controls), Data 2.

T2 sequence (P48730 whole entry): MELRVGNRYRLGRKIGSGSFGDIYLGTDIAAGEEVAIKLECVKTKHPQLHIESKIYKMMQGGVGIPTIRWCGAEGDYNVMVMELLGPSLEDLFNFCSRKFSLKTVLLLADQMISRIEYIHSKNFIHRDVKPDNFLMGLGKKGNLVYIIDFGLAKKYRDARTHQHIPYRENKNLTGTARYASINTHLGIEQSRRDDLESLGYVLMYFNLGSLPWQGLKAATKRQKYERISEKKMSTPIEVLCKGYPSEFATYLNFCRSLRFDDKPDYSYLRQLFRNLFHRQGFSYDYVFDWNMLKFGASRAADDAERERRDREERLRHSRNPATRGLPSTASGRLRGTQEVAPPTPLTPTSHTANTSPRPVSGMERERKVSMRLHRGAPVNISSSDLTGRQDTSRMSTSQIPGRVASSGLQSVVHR
T1 sequence (P53355 whole entry): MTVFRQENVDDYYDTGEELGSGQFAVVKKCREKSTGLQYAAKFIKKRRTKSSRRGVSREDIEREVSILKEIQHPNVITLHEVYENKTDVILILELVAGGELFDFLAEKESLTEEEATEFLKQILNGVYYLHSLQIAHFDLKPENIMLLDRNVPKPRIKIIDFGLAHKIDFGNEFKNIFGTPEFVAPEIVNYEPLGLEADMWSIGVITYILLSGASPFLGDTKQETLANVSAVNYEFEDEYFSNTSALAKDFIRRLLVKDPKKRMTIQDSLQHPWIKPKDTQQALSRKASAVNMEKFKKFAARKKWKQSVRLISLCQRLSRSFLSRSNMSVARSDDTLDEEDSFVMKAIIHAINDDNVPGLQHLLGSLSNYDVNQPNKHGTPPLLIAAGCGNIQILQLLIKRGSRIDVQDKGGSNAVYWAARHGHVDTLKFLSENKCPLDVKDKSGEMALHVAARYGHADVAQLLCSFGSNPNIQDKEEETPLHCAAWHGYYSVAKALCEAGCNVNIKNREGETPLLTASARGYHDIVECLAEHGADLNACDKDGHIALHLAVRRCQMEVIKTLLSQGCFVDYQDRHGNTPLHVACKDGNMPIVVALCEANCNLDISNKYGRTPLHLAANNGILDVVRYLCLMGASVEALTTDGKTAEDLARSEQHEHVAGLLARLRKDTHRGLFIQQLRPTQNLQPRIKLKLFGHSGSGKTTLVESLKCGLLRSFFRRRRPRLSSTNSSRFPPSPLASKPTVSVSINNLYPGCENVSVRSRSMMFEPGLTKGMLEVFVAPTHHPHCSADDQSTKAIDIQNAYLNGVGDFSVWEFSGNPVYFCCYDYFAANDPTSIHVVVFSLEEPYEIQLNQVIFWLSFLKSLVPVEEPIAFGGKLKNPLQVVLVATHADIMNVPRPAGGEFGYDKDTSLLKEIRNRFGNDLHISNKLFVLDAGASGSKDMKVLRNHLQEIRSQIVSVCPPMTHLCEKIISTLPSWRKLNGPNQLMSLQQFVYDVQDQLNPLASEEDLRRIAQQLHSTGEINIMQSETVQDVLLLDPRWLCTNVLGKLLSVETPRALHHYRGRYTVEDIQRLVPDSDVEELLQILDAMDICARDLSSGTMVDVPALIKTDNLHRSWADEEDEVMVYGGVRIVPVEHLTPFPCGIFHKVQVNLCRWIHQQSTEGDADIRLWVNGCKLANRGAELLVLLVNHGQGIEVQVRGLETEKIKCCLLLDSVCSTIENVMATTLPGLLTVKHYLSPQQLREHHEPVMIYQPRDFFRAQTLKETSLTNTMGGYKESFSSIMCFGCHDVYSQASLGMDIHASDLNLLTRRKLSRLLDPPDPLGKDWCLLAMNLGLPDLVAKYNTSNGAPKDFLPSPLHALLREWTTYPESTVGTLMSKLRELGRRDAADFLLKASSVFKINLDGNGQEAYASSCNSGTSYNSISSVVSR

Turning to `COc1cc2c(c(OC)c1OC)-c1ccc(OC)c(=O)cc1[C@@H](NC(C)=O)CC2` [Colchicine], the “% Enzyme Activity (relative to DMSO controls), Data 2” value on DAPK1 (1 uM, replicate Data 2) was 111.85%; at DAPK1 (10 uM, replicate Data 2), 96.44%; at CK1d (10 uM, replicate Data 2), 111.97%; on EPHB4 (1 uM, replicate Data 2), 106.52%; at EPHB4 (10 uM, replicate Data 2), 99.11%; at VEGFR2 (1 uM, replicate Data 2) it was 110.08%. For the same compound, the “% Enzyme Activity (relative to DMSO controls), Data 2” value on VEGFR2 (10 uM, replicate Data 2) turned out to be 105.23%.
With `O=C1Nc2ccc(Cl)cc2[C@@](C#CC2CC2)(C(F)(F)F)O1` [Efavirenz], the “% Enzyme Activity (relative to DMSO controls), Data 1” value at NEK2 (1 uM, replicate Data 1) was 110.94%; on NEK2 (10 uM, replicate Data 1), 81.38%; on CK1d (1 uM, replicate Data 1), 101.66%; on EPHB4 (1 uM, replicate Data 1), 93.6%; on EPHB4 (10 uM, replicate Data 1), 93.32%; on VEGFR2 (1 uM, replicate Data 1) it was 102.21%. For the same compound, the “% Enzyme Activity (relative to DMSO controls), Data 1” value on VEGFR2 (10 uM, replicate Data 1) stood at 95.58%.
With `CC(=O)O[C@H]1C[C@@]2(C)[C@@H](C[C@@H](O)[C@H]3[C@@]4(C)CC[C@@H](O)[C@@H](C)[C@@H]4CC[C@@]32C)/C1=C(\CCC=C(C)C)C(=O)O` [Fusidic acid], the remaining activity at 1 µM at DAPK1 (setting [1]) turned out to be 96.4%; at DAPK1 (setting [2]) it was 102%; at DAPK1 (setting [3]), 90.5%; at CK1d (setting [1]), 100%; on CK1d (setting [2]), 95.3%; on CK1d (setting [3]) it was 105%. The remaining activity at 1 µM on EPHB4 (setting [1]) stood at 101%; on EPHB4 (setting [2]) it was 101%; on EPHB4 (setting [3]) it was 101%; at VEGFR2 (setting [1]), 109%; on VEGFR2 (setting [2]) it was 110%; at VEGFR2 (setting [3]), 107%. In addition, the remaining activity at 10 µM on DAPK1 (setting [4]) came to 93.7%; on DAPK1 (setting [5]), 93%; on DAPK1 (setting [6]) it was 94.5%; on CK1d (setting [4]), 111%; at CK1d (setting [5]) it was 113%; on CK1d (setting [6]), 108%. Further, the remaining activity at 10 µM on EPHB4 (setting [4]) was found to be 92.3%; at EPHB4 (setting [5]) it was 95.3%; on EPHB4 (setting [6]) it was 89.3%; on VEGFR2 (setting [4]) it was 101%; on VEGFR2 (setting [5]) it was 96%; at VEGFR2 (setting [6]), 105%.
For the compound `O=C(O)c1ccccc1O` [Salicylic acid], the remaining activity at 1 µM at NEK2 (setting [1]) was determined as 88.2%; at NEK2 (setting [2]), 88.1%; at NEK2 (setting [3]), 88.3%; at CK1d (setting [1]), 105%; at CK1d (setting [2]), 107%; at CK1d (setting [3]) it was 103%. Also, the remaining activity at 1 µM on EPHB4 (setting [1]) worked out at 101%; on EPHB4 (setting [2]) it was 99.4%; at EPHB4 (setting [3]), 102%; at VEGFR2 (setting [1]), 96.6%; at VEGFR2 (setting [2]), 94.4%; at VEGFR2 (setting [3]), 98.7%. Besides, the remaining activity at 10 µM was 102% on NEK2 (setting [4]); 93.8% at NEK2 (setting [5]); 109% at NEK2 (setting [6]); 109% on CK1d (setting [4]); 109% on CK1d (setting [5]); 110% at CK1d (setting [6]). For the same compound, the remaining activity at 10 µM amounted to 93.4% at EPHB4 (setting [4]); 93% at EPHB4 (setting [5]); 93.8% on EPHB4 (setting [6]); 101% at VEGFR2 (setting [4]); 103% on VEGFR2 (setting [5]); 99.4% at VEGFR2 (setting [6]).
